Data taken from patent US20230092679A1, “MCL-1 INHIBITOR ANTIBODY-DRUG CONJUGATES AND METHODS OF USE” (NOVARTIS AG, priority 2019, published 2023).

Legend:
Assay type in all cases: cell-based
KMS-20 = experiment: CellTiter-Glo proliferation assay, anti-CD48 ADCs (Example 18); conditions: KMS-20, 5 days
Description: (§1) The CD48 MCL-1 antibody drug conjugate CD48-L7-P1, isotype IgG1-L7-P1 ADC, and MCL-1 free payload P1 were tested against four endogenous cancer cell lines. KMS-21 BM (JCRB No. JCRB11185 cultured in RPMI-1640+10% FBS), KMS-20 (JCRB No. JCRB1196 cultured in RPMI-1640+10% FBS), KMS-27 (JCRB No. JCRB1188 cultured in RPMI-1640+10% FBS), and NCI-H929 (ATCC No. CRL-9068 cultured in RPMI-1640+10% FBS+0.05 mM 2-mercaptoethanol).
(§2) The ability of the CD48 MCL-1 antibody drug conjugate CD48-L7-P1, isotype IgG1-L7-P1 ADC, and MCL-1 free payload P1 to inhibit cell proliferation and survival was assessed using the Promega CellTiter-Glo® proliferation assay.
(§3) Cell lines were cultured in media that is optimal for their growth at 5% CO2, 37° C. in a tissue culture incubator. Prior to seeding for the proliferation assay, the cells were split at least 2 days before the assay to ensure optimal growth density. On the day of seeding, suspension cells were harvested. Cell viability and cell density were determined using a cell counter (Vi-Cell XR Cell Viability Analyzer, Beckman Coulter). […] Cells were seeded at a density of 1,000 cells per well in 45 μL of standard growth media. Plates were incubated at 5% CO2, 37° C. overnight in a tissue culture incubator. The next day, free MCL-1 payload (P1), targeting MCL-1 ADC, and non-targeting isotype ADCs were prepared at 10× in standard growth media. The prepared drug treatments were then added to the cells resulting in final concentrations of 0.0005-500 nM and a final volume of 50 μL per well. Each drug concentration was tested in quadruplets. Plates were incubated at 5% CO2, 37° C. for 5 days in a tissue culture incubator, after which cell viability was assessed through the addition of 25 μL of CellTiter Glo® (Promega, cat #G7573), a reagent which lyses cells and measures total adenosine triphosphate (ATP) content. Plates were incubated at room temperature for 10 minutes to stabilize luminescent signals prior to reading using a luminescence reader (EnVision Multilabel Plate Reader, PerkinElmer). To evaluate the effect of the drug treatments, luminescent counts from wells containing untreated cells (100% viability) were used to normalize treated samples. A variable slope model was applied to fit a nonlinear regression curve to the data in GraphPad PRISM version 7.02 software. IC50 and Amax values were extrapolated from the resultant curves.
(§4) The dose response curves of representative cancer cell lines expressing the CD48 target of interest are shown in FIG. 22 (square=CD48-L7-P1, circle IgG-L7-P1, triangle=free MCL1 payload P1).

KMS-21 BM = experiment: as above; conditions: 5 days
Description: as §1, §2, §3, §4

KMS-27 = experiment: as above; conditions: KMS-27, 5 days
Description: as §1, §2, §3, §4

NCI-H929 = experiment: as above; conditions: NCI-H929, 5 days
Description: as §1, §2, §3, §4

mv411 = experiment: In vitro ADC activity, AML cell lines, CellTiter-Glo (Example 20); conditions: mv411, 5 days
pl21 = experiment: as above; conditions: pl21, 5 days
skm1 = experiment: as above; conditions: skm1, 5 days

**Q.** What does the source list for `COc1ccccc1-c1nccc(COc2ccccc2C[C@@H](Oc2ncnc3sc(-c4ccc(F)cc4)c(-c4ccc(OCCN5CCN(C)CC5)c(Cl)c4C)c23)C(=O)O)n1` [P1, (2R)-2-[5-[3-chloro-2-methyl-4-[2-(4-methylpiperazin-1-yl)ethoxy]phenyl]-6-(4-fluorophenyl)thieno[2,3-d]pyrimidin-4-yl]oxy-3-[2-[[2-(2-methoxyphenyl)pyrimidin-4-yl]methoxy]phenyl]propanoic acid]?
**A.** IC50 (KMS-20; 120 h): 4.95 nM; Amax (KMS-20; in %): 94.34; IC50 (KMS-21 BM; 120 h): 0.941 nM; Amax (KMS-21 BM; in %): 85.27; IC50 (KMS-27; 120 h): 6.98 nM; Amax (KMS-27; in %): 88.98; IC50 (NCI-H929; Homo sapiens, 120 h): 2.04 nM; Amax (NCI-H929; in %): 109.1; GI50 (mv411; Homo sapiens, MV4-11, 120 h): 1 nM; Amax (mv411; in % (unit assumed)): −72; GI50 (pl21; PL-21, 120 h): 350 nM; Amax (pl21; in % (unit assumed)): −55; GI50 (skm1; Homo sapiens, SKM-1, 120 h): 119 nM; Amax (skm1; in % (unit assumed)): −49
